Experimental findings from ChEMBL document CHEMBL1136860, “Synthesis and 5-lipoxygenase inhibitory activity of new cinnamoyl and caffeoyl clusters” (Bioorg Med Chem Lett, 2009) are described below.

As a reminder, the inhibition is the relative decrease from the control value, in per cent. The term IC50 denotes the concentration that gives 50% inhibition. A lower IC50 goes with greater potency in that assay.

Holding throughout (assay type): cell-based
In assay [1] the target is T1, Polyunsaturated fatty acid 5-lipoxygenase (Homo sapiens) (UniProt P09917).
T1 sequence (whole entry): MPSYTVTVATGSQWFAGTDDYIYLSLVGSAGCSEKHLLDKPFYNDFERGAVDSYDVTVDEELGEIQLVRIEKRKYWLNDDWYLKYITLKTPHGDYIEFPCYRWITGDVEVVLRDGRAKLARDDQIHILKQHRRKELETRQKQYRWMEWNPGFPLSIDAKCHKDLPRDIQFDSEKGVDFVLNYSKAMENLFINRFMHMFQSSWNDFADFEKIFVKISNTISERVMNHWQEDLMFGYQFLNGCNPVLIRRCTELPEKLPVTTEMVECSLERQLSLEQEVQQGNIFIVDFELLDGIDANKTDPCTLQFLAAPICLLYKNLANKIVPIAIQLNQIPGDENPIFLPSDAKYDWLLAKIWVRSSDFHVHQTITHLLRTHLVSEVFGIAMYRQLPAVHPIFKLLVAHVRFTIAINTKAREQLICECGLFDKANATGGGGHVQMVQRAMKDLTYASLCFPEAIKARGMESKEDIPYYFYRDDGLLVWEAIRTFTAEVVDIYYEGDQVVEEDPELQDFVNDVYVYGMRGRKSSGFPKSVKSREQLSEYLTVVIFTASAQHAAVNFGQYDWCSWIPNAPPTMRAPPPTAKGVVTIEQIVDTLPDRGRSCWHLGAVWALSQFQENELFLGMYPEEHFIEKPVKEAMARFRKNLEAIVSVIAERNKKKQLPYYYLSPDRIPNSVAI
Nature of the assay: Inhibition of human 5LOX expressed in HEK293 cells at 1 uM.

The target of assay [2] is T2, Polyunsaturated fatty acid 5-lipoxygenase (Homo sapiens, UniProt P09917).
T2 sequence (P09917 whole entry): T1 sequence (whole entry)
Nature of the assay: Inhibition of human 5LOX expressed in HEK293 cells.

The target in assay [3] is T1, Polyunsaturated fatty acid 5-lipoxygenase (Homo sapiens). Nature of the assay: Ratio of IC50 of caffeic acid to IC50 of compound for human 5LOX expressed in HEK293 cells.

SMILES strings stand for the structures. Activity calls are given as the source filed them. The rule behind the calls is not given here.

Turning to `O=C(/C=C/c1ccccc1)OCCn1cc(COC(=O)/C=C/c2ccc(O)c(O)c2)nn1`, in assay [1], the result was Active.

Turning to `O=C(/C=C/c1ccc(O)c(O)c1)OCCn1cc(COCC(COCc2cn(CCOC(=O)/C=C/c3ccc(O)c(O)c3)nn2)(COCc2cn(CCOC(=O)/C=C/c3ccc(O)c(O)c3)nn2)COCc2cn(CCOC(=O)/C=C/c3ccc(O)c(O)c3)nn2)nn1`, the result in assay [1] was Active.

In assay [1], `O=C(/C=C/c1ccc(O)c(O)c1)OCc1cn(CC(CO)(Cn2cc(COC(=O)/C=C/c3ccc(O)c(O)c3)nn2)Cn2cc(COC(=O)/C=C/c3ccc(O)c(O)c3)nn2)nn1` had an inhibition of 91%. Further, in assay [2], the IC50 worked out at 790 nM. Also, in assay [3], the Ratio IC50 came to 10.5.

`O=C(/C=C/c1ccc(O)c(O)c1)OCc1cn(CC(Cn2cc(COC(=O)/C=C/c3ccc(O)c(O)c3)nn2)(Cn2cc(COC(=O)/C=C/c3ccc(O)c(O)c3)nn2)Cn2cc(COC(=O)/C=C/c3ccc(O)c(O)c3)nn2)nn1`: the inhibition in assay [1] worked out at 92%. In assay [2], this compound showed an IC50 of 660 nM. In addition, the Ratio IC50 in assay [3] came out at 10.1.

As to `O=C(/C=C/c1ccc(O)c(O)c1)OCc1cn(CC(COCC(Cn2cc(COC(=O)/C=C/c3ccc(O)c(O)c3)nn2)(Cn2cc(COC(=O)/C=C/c3ccc(O)c(O)c3)nn2)Cn2cc(COC(=O)/C=C/c3ccc(O)c(O)c3)nn2)(Cn2cc(COC(=O)/C=C/c3ccc(O)c(O)c3)nn2)Cn2cc(COC(=O)/C=C/c3ccc(O)c(O)c3)nn2)nn1`, in assay [1], the outcome was Active.

Take `O=C(/C=C/c1ccc(O)c(O)c1)OCCn1cc(COC(=O)/C=C/c2ccccc2)nn1`: the result in assay [1] was Active. In assay [2], the IC50 is 680 nM. In assay [3], the Ratio IC50 was determined as 36.7.

`O=C(/C=C/c1ccc(O)c(O)c1)OCCn1cc(COC(=O)/C=C/c2ccc(O)c(O)c2)nn1`: the outcome in assay [1] was Active. For the same compound, it took 740 nM to reach half-maximal inhibition in assay [2] (IC50). Also, the Ratio IC50 in assay [3] was found to be 16.8.
